Results on eight compounds are retold here after patent publication US4472408A, “Substituted trifluoromethylphenyltetrahydropyridines having an anorectic activity” (Sanofi, priority 1981, dated 1984).

By LD50 is commonly meant the dose at which mortality reaches 50%. Usually pIC50 stands for the IC50 on a negative log10 scale, so that one unit is a factor of ten.

The nature of data set [1]: acute toxicity, LD50 in the rat by oral or intraperitoneal route. The following applies: in vivo. From the text: the acute toxicity, expressed as LD50 in the rat by the oral or intraperitoneal route (A);
A short description of data set [2]: anorectic activity, food intake in the rat. Type of data set: in vivo. The following applies: in vivo, read-out: A/B, ratio acute toxicity to anorectic activity (therapeutic index). On the procedure: (§1) The anorectic activity was assessed by the method of the food intake in the rat. Female rats weighing 200 g are used, which were trained for 10 days to eat during a period of 4 hours and selected on the eighth day. At the end of the tenth day, the randomised animals were divided into a "control group" treated by the vehicle alone, and into several "treated groups". Treatment was effected by the intraperitoneal or oral route 30 minutes or 1 hour before presentation of the food and the quantity of food therefor taken during the first hour was then measured.
(§2) the anorectic activity, expressed as oral or intraperitoneal dose inhibiting by 50% the food intake (ID50, B);
(§3) the ratio between the acute toxicity and the anorectic activity which expresses the therapeutic index related to the acute toxocity (A/B).

Data set [3] has as its system food intake in the rat. The data set is described as follows: anorectic activity, food intake in the rat. Type of data set: in vivo. The following applies: 1 h, food taken during first hour, read-out: ID50 (B), dose inhibiting by 50% the food intake. The procedure: as §1, §2, §3
The test system of data set [4] is cerebral serotonin. The data set is described as follows: cerebral rates of serotonin after i.p. or oral administration (Curzon and Green). It is filed as in vivo. From the text: Table II hereinbelow summarises the cerebral rates of serotonin, in percentage with respect to the controls, after intraperitoneal or oral administration of four representative compounds of the present invention. The determination of the cerebral rates, according to Curzon and Green (Brit. J. Pharmacol. 39, 653, 1970) was effected one hour and/or two hours after administration. Fenfluramine was used as reference product.

Data set [5] addresses post-synaptic serotonin receptors. The data set is described as follows: 3H-serotonin binding to rat cortex membranes (Peroutka and Snyder). The procedure:
The affinity of the compounds of the present invention for the post-synaptic serotinin receptors was determined according to the method of Peroutka and Snyder (Molec. Pharmacol. 1979, 16, 687-699) which consists in incubating rat cortex membranes with a fixed concentration of ^3 H-serotonin in the presence of different concentrations of product. […] Fenfluramine was used as reference compound.

Data set [6] concerns cerebral serotonin. The following applies: at doses very close to the anorectic dose; Arch. Intern. Pharmacodyn. Ther. 1967; cited from earlier work.
The subject of data set [7] is food intake in the rat. The following applies: background; cited from earlier work.
For data set [8] the following is noted: background; cited from earlier work.
Setting [9] is: i.p., 7.5 mg/kg, 2 hrs (fenfluramine: significant P < 0.01).

Each structure is given as a SMILES string. pIC50: −log10 of the molar value. Structures can show the parent of a compound that is named as a salt. Where two headings read alike, the source gives them in different places.

Turning to `Cl.N#CCCN1CC=C(c2cccc(C(F)(F)F)c2)CC1` [Example 2, 4-(3-trifluoromethylphenyl)-1-(2-cyanoethyl)-1,2,3,6-tetrahydropyridine hydrochloride], the LD50 in data set [1] (ip) came to 206 mg/kg; in data set [1] (oral), 254 mg/kg. Moreover, the selectivity ratio in data set [2] (ip) came out at 17.1; in data set [2] (oral), 26.7. Besides, the ED50 in the data set on food intake in the rat [3] (oral) turned out to be 9.5 mg/kg; in the data set with food intake in the rat [3] (ip, i.p.), 12 mg/kg. In addition, the “cerebral rates of serotonin” value is 128 % with respect to controls in the data set with cerebral serotonin [4] (setting [9]); 131.0 % with respect to controls in the data set with cerebral serotonin [4] (i.p., 15.0 mg/kg, 1 hr); 146 % with respect to controls in the data set with cerebral serotonin [4] (i.p., 15.0 mg/kg, 2 hrs); 146 % with respect to controls in the data set with cerebral serotonin [4] (i.p., 30.0 mg/kg, 2 hrs).

`Cl.FC(F)(F)c1cccc(C2=CCN(CCC3CCCCC3)CC2)c1` [Example 10, 4-(3-trifluoromethylphenyl)-1-(2-cyclohexylethyl)-1,2,3,6-tetrahydropyridine hydrochloride]: the LD50 in data set [1] (oral) was 488 mg/kg. In addition, the selectivity ratio in data set [2] (oral) is 188. In addition, the ED50 in the data set on food intake in the rat [3] (oral) was 2.6 mg/kg. The “cerebral rates of serotonin” value is recorded as 99 % with respect to controls in the data set with cerebral serotonin [4] (oral, 1.25 mg/kg, 2 hrs); 95 % with respect to controls with cerebral serotonin [4] (oral, 2.5 mg/kg, 2 hrs); 101 % with respect to controls in the data set on cerebral serotonin [4] (oral, 5 mg/kg, 2 hrs).

For the compound `Cl.FC(F)(F)c1cccc(C2=CCN(CC3CC3)CC2)c1` [Example 7, 4-(3-trifluoromethylphenyl)-1-cyclopropylmethyl-1,2,3,6-tetrahydropyridine hydrochloride], the LD50 in data set [1] (ip) turned out to be 135 mg/kg. For the same compound, in data set [2] (ip), the selectivity ratio amounted to 24.6. Further, the ED50 in the data set with food intake in the rat [3] (ip, i.p.) worked out at 5.5 mg/kg. Further, the “cerebral rates of serotonin” value in the data set with cerebral serotonin [4] (i.p., 3.25 mg/kg, 2 hrs) is 111 % with respect to controls; with cerebral serotonin [4] (setting [9]), 123 % with respect to controls; with cerebral serotonin [4] (i.p., 15.0 mg/kg, 2 hrs), 119 % with respect to controls.

For the compound `CC(=O)CCN1CC=C(c2cccc(C(F)(F)F)c2)CC1.Cl` [Example 6, 4-(3-trifluoromethylphenyl)-1-(3-oxobutyl)-1,2,3,6-tetrahydropyridine hydrochloride], the LD50 in data set [1] (ip) was 134 mg/kg; in data set [1] (oral) it was 299 mg/kg. In addition, the selectivity ratio in data set [2] (ip) was found to be 20.6; in data set [2] (oral) it was 25.3. Further, the ED50 with food intake in the rat [3] (oral) stood at 11.8 mg/kg; with food intake in the rat [3] (ip, i.p.), 6.5 mg/kg. Also, the “cerebral rates of serotonin” value with cerebral serotonin [4] (i.p., 3.25 mg/kg, 2 hrs) was 109 % with respect to controls; in the data set with cerebral serotonin [4] (setting [9]) it was 108 % with respect to controls; in the data set on cerebral serotonin [4] (i.p., 15.0 mg/kg, 2 hrs), 116 % with respect to controls.

For the compound `Cl.N#CCCCN1CC=C(c2cccc(C(F)(F)F)c2)CC1` [Example 3, 4-(3-trifluoromethylphenyl)-1-(3-cyanopropyl)-1,2,3,6-tetrahydropyridine hydrochloride], the LD50 came to 258 mg/kg in data set [1] (ip) and 538 mg/kg in data set [1] (oral). The selectivity ratio in data set [2] (ip) came out at 23.3; in data set [2] (oral), 46. In addition, the ED50 in the data set with food intake in the rat [3] (oral) was determined as 11.7 mg/kg; in the data set with food intake in the rat [3] (ip, i.p.), 11.1 mg/kg.

With `N#CCCCCN1CC=C(c2cccc(C(F)(F)F)c2)CC1` [Example 4, 4-(3-trifluoromethylphenyl-1-(4-cyanobutyl)-1,2,3,6-tetrahydropyridine hydrochloride], the LD50 in data set [1] (oral) stood at 336 mg/kg. The selectivity ratio in data set [2] (oral) was determined as 32. Further, the ED50 with food intake in the rat [3] (oral) was 10.5 mg/kg.

In data set [1] (ip), `CC(=O)CN1CC=C(c2cccc(C(F)(F)F)c2)CC1.Cl` [Example 5, 4-(3-trifluoromethylphenyl)-1-acetonyl-1,2,3,6-tetrahydropyridine hydrochloride] came in with an LD50 of 165 mg/kg. In addition, the selectivity ratio in data set [2] (ip) is 15.3. Further, in the data set on food intake in the rat [3] (ip, i.p.), the ED50 was determined as 10.8 mg/kg.

`CCNC(C)Cc1cccc(C(F)(F)F)c1` (centres unmarked) [fenfluramine, reference compound]: the pIC50 in data set [5] is under 5.00. Also, the “effect on cerebral rates of serotonin (in words)” value in the data set on cerebral serotonin [6] is recorded as “induces a significant reduction in the cerebral rates of serotonin”; in the data set on cerebral serotonin [4] (in vivo) it was “induces a significant reduction of cerebral serotonin”. In addition, the figures for the selectivity ratio in data set [2] (ip) and in data set [2] (oral) were 15.8 and 25.1, respectively. Further, the ED50 in the data set with food intake in the rat [3] (oral) was determined as 4 mg/kg; with food intake in the rat [3] (ip, i.p.), 5.4 mg/kg. In the data set with food intake in the rat [7], the “anorectic activity (in words)” value is “excellent anorectic activity”. Moreover, the “sedative or stimulant action (in words)” value in data set [8] is listed as “instead of being stimulant, has a certain sedative action”. For the same compound, the “cerebral rates of serotonin” value in the data set with cerebral serotonin [4] (i.p., 5 mg/kg, 1 hr, significant P < 0.05) is recorded as 82.9 % with respect to controls; in the data set on cerebral serotonin [4] (i.p., 7.5 mg/kg, 1 hr, significant P < 0.05), 81.6 % with respect to controls; in the data set on cerebral serotonin [4] (setting [9]), 53.1 % with respect to controls; in the data set with cerebral serotonin [4] (i.p., 10 mg/kg, 1 hr, significant P < 0.01), 79.0 % with respect to controls.
